The structures appear in SMILES notation. pIC50: −log10 of the molar value. A value given as a limit tells only on which side of the number the result lay.

The target in the assay is T1, human GPR84 receptor (Homo sapiens, UniProt Q9NQS5).
T1 construct: host or cells: HEK293 cells, transient transfection
Kind of assay: Gαi biosensor BRET assay in transfected HEK293 cells (antagonism of GPR84 agonist ZQ-16). The class given is cell-based. The settings on record: 200 nmol/L ZQ-16; for inhibition at 10 µM / inhibition at 2 µM: HEK293, single concentration; for inhibition at 10 µM: code F = 10 μM; for inhibition at 2 µM: code A = 2 μM. From the text: Background—The following assays can be used for determination of GPR84 activation in living HEK293 cells. The Gαi BRET biosensor (Gagnon et al., 2018; Gales et al., 2006. Nat Struct Mol Biol. 13, 778-86; Saulieres et al., 2012. Nat Chem Biol. 8, 622-30) allows to directly monitor GPR84-mediated activation of Gαi. The Gαi biosensor consists of a Rluc8-tagged Gαi2 subunit, a GFP10-tagged Gγ2 subunit, and an untagged Gβ1. Agonist stimulation and GPR84 activation triggers a physical separation between the RLuc8-Gαi donor and the GFP10-Gγ2 acceptor, resulting in a decrease in BRET signal whose amplitude is correlated to ligand efficacy (Gales et al., 2006). Moreover, signaling functions of GPCRs are tightly regulated by endocytosis, the targeting of receptors to endosomes and their sorting to lysosomes or recycling to the plasma membrane. The early endosomes (EEs) trafficking assay (Namkung et al., 2016. Nat Commun. 7, 12178) uses Rluc8-tagged GPR84 and Renilla GFP (rGFP) attached to the FYVE domain from human endofin/zinc finger FYVE domain-containing protein 16, which binds phosphatidylinositol 3-phosphate in EEs. Agonist stimulation of GPR84-Rluc8 leads to trafficking of the receptor to EEs, and ensuing increase of the donor concentration relative to the rGFP-FYVE acceptor anchored in the same cellular compartment, and thus results in an increase in BRET signal.
Plasmids—The cDNA clones for human GPR84 receptor, human Gαi2, Gβ1, and Gγ2 were obtained from the cDNA Resource Center (www.cdna.org). GFP10 (F64L, S147P, S202F and H231L variant of Aequorea victoria Green Fluorescent Protein) gBlocks gene fragments (Integrated DNA Technologies, IA) and linker were inserted in frame at the N-terminus of human Gγ2. Rluc8 (A55T, C124A, S130A, K136R, A143M, M185V, M253L, and S287L variant of the Renilla reniformis luciferase) gBlocks gene fragment was inserted with linkers in frame in between residues 91 and 92 of Gα2 or at the C-terminus of GPR84. The FYVE domain from human endofin (residues Q739 to K806) attached in frame at the C terminus of a humanized Renilla GFP (rGFP), were synthesized as gBlocks gene fragments.
Bioluminescence Resonance Energy Transfer (BRET) Measurement—HEK293 cells were transfected with GPR84-Rluc8 and rGFP-FYVE for the EEs trafficking biosensor or with GPR84, Gαi2-Rluc8, GFP10-Gγ2, and Gβ1 for the Gαi biosensor. The following day, transiently transfected cells were seeded in 96-well white clear bottom microplates coated with poly-D-lysine and left in culture for 24 hours. Cells were washed once with Tyrode's buffer (140 mmol/L NaCl, 1 mmol/L CaCl2, 2.7 mmol/L KCl, 0.49 mmol/L MgCl2, 0.37 mmol/L NaH2PO4, 5.6 mmol/L glucose, 12 mmol/L NaHCO3, and 25 mmol/L HEPES, pH 7.5) before performing assays in Tyrode's buffer. Test compounds were incubated with cells for 5 (Gui) or 15 (EEs) minutes at 37° C. before addition of 200 nmol/L of the GPR84 agonist ZQ-16 (2-(Hexylthio)-6-hydroxy-4(3H)-pyrimidinone) for 5 minutes at room temperature (Gui) or 30 minutes at 37° C. (EEs). The Rluc8 substrate coelenterazine 400A (Prolume, Lakeside, AZ) was added at a final concentration of 5 μmol/L and BRET readings were collected using an Infinite M1000 microplate reader (Tecan, Morrisville, NC). BRET^2 readings between Rluc8 and GFP10 or rGFP were collected by sequential integration of the signals detected in the 370 to 450 nm (Rluc8) and 510 to 540 nm (GFP10, rGFP) windows. The BRET signal was calculated as the ratio of light emitted by acceptor (GFP10, rGFP) over the light emitted by donor (Rluc8). The values were corrected to net BRET by subtracting the background BRET signal obtained in cells transfected with Rluc8 constructs alone. Ligand-promoted net BRET values were calculated by subtracting vehicle-induced net BRET from ligand-induced net BRET.

T1 sequence (Q9NQS5 whole entry): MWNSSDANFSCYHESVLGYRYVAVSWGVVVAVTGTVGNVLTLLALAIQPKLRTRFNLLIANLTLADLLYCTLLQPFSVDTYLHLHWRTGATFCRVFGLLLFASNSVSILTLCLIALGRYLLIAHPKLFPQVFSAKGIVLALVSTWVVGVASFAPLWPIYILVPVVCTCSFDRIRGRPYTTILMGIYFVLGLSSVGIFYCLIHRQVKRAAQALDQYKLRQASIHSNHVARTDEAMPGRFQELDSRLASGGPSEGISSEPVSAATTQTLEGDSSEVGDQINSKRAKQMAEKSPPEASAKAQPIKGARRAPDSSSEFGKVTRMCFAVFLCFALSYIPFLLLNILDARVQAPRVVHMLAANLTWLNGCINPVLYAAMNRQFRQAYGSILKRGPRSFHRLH

`CN(Cc1ccc(C#CC2CC2)cc1C1CC1)c1cn(CC2OCC3(CC3)CO2)nn1` [Compound I-51] returned an inhibition at 10 µM of more than 75%. Turning to `CCc1ccc(C#CC2CC2)cc1N(C)C(=O)c1cn(CC2OCC3(CC3)CO2)nn1` [Compound I-104], the pIC50 was 6.00 to 6.52 and the inhibition at 10 µM was more than 75%. Compound `O=C(c1cn(CC2OCC3(CC3)CO2)nn1)N1CCc2c(C#CC3CC3)cccc21` [Compound I-25] gave an inhibition at 2 µM not above 25%. `Cc1cc(C#CC2CC2)cc(F)c1N(C)C(=O)c1cn(CC2OCC3(CC3)CO2)nn1` [Compound I-32]: the negative-log IC50 (pIC50) was not below 6.52 and the inhibition at 10 µM was more than 75%. Turning to `Cc1cc(C#CC2CC2)ccc1OC(=O)c1cn(CC2OCC3(CC3)CO2)nn1` [Compound I-46], the inhibition at 10 µM lay in the range of 25 to 50%.

In turn, `Cc1cc(C#CC2CC2)cnc1CN(C)c1cn(CC2OCC3(CC3)CO2)nn1` [Compound I-5, 1-((5,7-dioxaspiro[2.5]octan-6-yl)methyl)-N-((5-(cyclopropylethynyl)-3-methylpyridin-2-yl)methyl)-N-methyl-1H-1,2,3-triazol-4-amine] showed a pIC50 of 6.00 to 6.52 and an inhibition at 10 µM of more than 75%.

`Cc1ccc(C#CC2CC2)cc1N(C)C(=O)c1cn(CC(=O)N(C)C)nn1` [Compound I-13, N-(5-(cyclopropylethynyl)-2-methylphenyl)-1-(2-(dimethylamino)-2-oxoethyl)-N-methyl-1H-1,2,3-triazole-4-carboxamide] showed an inhibition at 10 µM of 25 to 50%. `Cc1cc(C#CC2CC2)c2c(c1)CCC2N(C)c1cn(CC2OCC3(CC3)CO2)nn1` (centres unmarked) [Compound I-81] gave an inhibition at 2 µM not above 25%. As for `Cc1c(NC(=O)c2ccc(C#CC3CC3)cc2)nnn1CC1OCC2(CC2)CO1` [Compound I-62], the inhibition at 10 µM was not above 25%.

In turn, `Cc1ccc(C#CC2CC2)cc1Nc1cn(CC2OCC3(CC3)CO2)cn1` [Compound I-15] came in with an inhibition at 10 µM not above 25%. Turning to `CN(C)c1cc(C#CC2CC2)ccc1N(C)C(=O)c1cn(CC2OCC3(CC3)CO2)nn1` [Compound I-1, 1-((5,7-dioxaspiro[2.5]octan-6-yl)methyl)-N-(4-(cyclopropylethynyl)-2-(dimethylamino)phenyl)-N-methyl-1H-1,2,3-triazole-4-carboxamide], the negative logarithm of the IC50 (pIC50) is 6.00 to 6.52 and the inhibition at 10 µM was more than 75%. Take `Cc1cc(F)c(C#CC2CC2)cc1NC(=O)c1cn(CC2OCC3(CC3)CO2)nn1` [Compound I-101]: the inhibition at 10 µM was not above 25%. On the same count and under the same terms, the value for `CN(C(=O)c1cn(CC2OCC3(CC3)CO2)nn1)c1cc(C#CC2CC2)ccc1O` [Compound I-49] was 25 to 50%.

With `CN(C(=O)c1cn(CC2OCC3(CC3)CO2)cn1)c1ccc(C#CC2CC2)cc1F` [Compound I-59], the pIC50 was not below 6.52 and the inhibition at 2 µM was more than 75%.

As to `CN(C(=O)c1cn(CC2OCC3(CC3)CO2)nn1)c1cc(C#CC2CC2)ccc1F` [Compound I-31], the pIC50 is 5.52 to 6.00 and the inhibition at 10 µM is more than 75%. For `Cc1ccc(C#CC2CC2)cc1N(C)C(=O)c1ncc(OCC(=O)N(C)C)cc1C` [Compound I-34], the inhibition at 10 µM is not above 25%.

Compound `O=C(Nc1cc(C#CC2CC2)ccc1C1CC1)c1cn(CC2OCC3(CC3)CO2)nn1` [Compound I-45] displayed an inhibition at 10 µM not above 25%. Consider `CN(C)c1ccc(C#CC2CC2)cc1N(C)C(=O)c1cn(CC2OCC3(CC3)CO2)nn1` [Compound I-26], for which the pIC50 is 6.00 to 6.52 and the inhibition at 10 µM was more than 75%.

`CCc1ccc(C#CC2CC2)cc1NC(=O)c1cn(CC2OCC3(CC3)CO2)nn1` [Compound I-103] showed an inhibition at 10 µM not above 25%. Same read-out and setting: the value for `CN(c1cn(CC2OCC3(CC3)CO2)nn1)c1cc(C#CC2CC2)ccc1Cl` [Compound I-8, 1-((5,7-dioxaspiro[2.5]octan-6-yl)methyl)-N-(2-chloro-5-(cyclopropylethynyl)phenyl)-N-methyl-1H-1,2,3-triazol-4-amine] was more than 75%; that for `O=C(Nc1c(F)cc(C#CC2CC2)cc1F)c1cn(CC2OCC3(CC3)CO2)nn1` [Compound I-42] was not above 25%; that for `O=C(c1cn(CC2OCC3(CC3)CO2)nn1)N1CCCc2c(C#CC3CC3)cccc21` [Compound I-28] was 50 to 75%. Still for that read-out and setting: the result for `Cc1cc(C#CC2CC2)cc(C)c1NC(=O)c1cn(CC2OCC3(CC3)CO2)nn1` [Compound I-41] reads not above 25%.

`O=C(Nc1cccc(C#CC2CC2)c1)c1cn(CC2OCC3(CC3)CO2)nn1` [Compound I-97] showed an inhibition at 10 µM not above 25%.

Regarding `Cc1ccc(C#CC2CC2)cc1N(C)S(=O)(=O)c1cn(CC2OCC3(CC3)CO2)nn1` [Compound I-55], the inhibition at 10 µM is more than 75%. Same read-out and setting: the result for `CN(c1ccc(C#CC2CC2)cc1)c1cn(CC2OCC(C)(C)CO2)nn1` [Compound I-82] reads not above 25%.

For the compound `Cc1ccc(C#CC2CC2)cc1NCc1cn(CC2OCC3(CC3)CO2)nn1` [Compound I-11, N-((1-((5,7-dioxaspiro[2.5]octan-6-yl)methyl)-1H-1,2,3-triazol-4-yl)methyl)-5-(cyclopropylethynyl)-2-methylaniline], the inhibition at 2 µM is not above 25%. Consider `Cc1ccc(C#CC2CC2)cc1/N=C(\OC(C)C)c1cn(CC2OCC3(CC3)CO2)nn1` [Compound I-87], for which the inhibition at 10 µM is more than 75%. `Cc1ccc(C#CC2CC2)nc1N(C)C(=O)c1cn(CC2OCC3(CC3)CO2)nn1` [Compound I-36] yielded an inhibition at 10 µM of 25 to 50%.

`CN(C(=O)c1cn(CC2OCC3(CC3)CO2)nn1)c1cc(C#CC2CC2)ccc1C1CC1` [Compound I-47] gave a negative logarithm of the IC50 (pIC50) of 6.00 to 6.52 and an inhibition at 10 µM of more than 75%. Turning to `CN(C)c1ccc(C#CC2CC2)cc1NC(=O)c1cn(CC2OCC3(CC3)CO2)nn1` [Compound I-102], the inhibition at 10 µM is not above 25%. On to `CN(C(=O)c1cn(CC2OCC3(CC3)CO2)nn1)c1c(F)cc(C#CC2CC2)cc1F` [Compound I-43], for which the negative-log IC50 (pIC50) was not below 6.52 and the inhibition at 2 µM is more than 75%. `Cc1cc(C#CC2CC2)ccc1N(C)Cc1cn(CC2OCC3(CC3)CO2)nn1` [Compound I-40] gave an inhibition at 10 µM of more than 75%. `CN(C(=O)c1cn(CC2OCC3(CC3)CO2)nn1)c1cc(C#CC2CC2)ccc1Br` [Compound I-44] gave a pIC50 of 6.00 to 6.52 and an inhibition at 10 µM of more than 75%.

`Cc1ccc(C#CC2CC2)cc1N(C(=O)c1cn(CC2OCC3(CC3)CO2)nn1)C(C)C` [Compound I-86] had a negative-log IC50 (pIC50) not below 6.52 and an inhibition at 2 µM of more than 75%.

The compound `Cc1ccc(C#CC2CC2)c(F)c1N(C)C(=O)c1cn(CC2OCC3(CC3)CO2)nn1` [Compound I-37] gave a pIC50 not below 6.52 and an inhibition at 10 µM of more than 75%. Regarding `Cc1ccccc1NC(=O)c1cn(CC2OCC3(CC3)CO2)nn1` [Compound I-30], the inhibition at 10 µM is not above 25%.

Regarding `Cc1c(N(C)C(=O)c2ccc(C#CC3CC3)cc2)nnn1CC1OCC2(CC2)CO1` [Compound I-61], the inhibition at 10 µM lay within 50 to 75%.

Regarding `COc1cc(C#CC2CC2)cc(N(C)C(=O)c2cn(CC3OCC4(CC4)CO3)nn2)c1` [Compound I-99], the inhibition at 10 µM is 25 to 50%. In turn, `O=C(c1cn(CC2OCC3(CC3)CO2)nn1)N(c1ccc(C#CC2CC2)cc1Br)C1CC1` [Compound I-93] had a negative-log IC50 (pIC50) not below 6.52 and an inhibition at 2 µM of more than 75%.

The record behind these values is patent publication US20260028330A1, “HETEROARYL CARBOXAMIDE AND RELATED GPR84 ANTAGONISTS AND USES THEREOF” (LIMINAL BIOSCIENCES LIMITED, priority 2022, published 2026).
